Experimental data reported in patent US7138361B2, “Herbicidal heterocycles” (E. I. du Pont de Nemours and Company, priority 2000, dated 2006).

Assays:
Assay type in all cases: in vivo
[1] = tested on: Surinam grass (Brachiaria decumbens); assay: Test B postemergence
Outline: (§1)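 Preemergence: seeds planted and treated with test chemicals in non-phytotoxic solvent with surfactant; postemergence on plants 2–18 cm (1- to 4-leaf stage). Kept in greenhouse 13–15 days, then visually rated against controls on a 0 (no effect) to 100 (complete control) scale.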

[2] = tested on: barnyardgrass (Echinochloa crus-galli); assay: Test B postemergence
Outline: as §1

[3] = tested on: blackgrass (Alopecurus myosuroides); assay: Test B postemergence
Outline: as §1

[4] = tested on: cocklebur (Xanthium strumarium); assay: Test B postemergence
Outline: as §1

corn (Zea mays) [5] = assay: Test B postemergence
Outline: as §1

[6] = tested on: crabgrass (Digitaria sanguinalis); assay: Test B postemergence
Outline: as §1

[7] = tested on: giant foxtail (Setaria faberii); assay: Test B postemergence
Outline: as §1

[8] = tested on: lambsquarters (Chenopodium album); assay: Test B postemergence
Outline: as §1

[9] = tested on: morning glory (Ipomoea hederacea); assay: Test B postemergence
Outline: as §1

[10] = tested on: pigweed (Amaranthus retroflexus); assay: Test B postemergence
Outline: as §1

[11] = tested on: velvetleaf (Abutilon theophrasti); assay: Test B postemergence
Outline: as §1

[12] = tested on: wheat (Triticum aestivum); assay: Test B postemergence
Outline: as §1

wild oat (Avena fatua) = assay: Test B postemergence
Outline: as §1

[13] = tested on: Surinam grass (Brachiaria decumbens); assay: Test B preemergence
Outline: as §1

[14] = tested on: barnyardgrass (Echinochloa crus-galli); assay: Test B preemergence
Outline: as §1

[15] = tested on: cocklebur (Xanthium strumarium); assay: Test B preemergence
Outline: as §1

corn (Zea mays) [16] = assay: Test B preemergence
Outline: as §1

[17] = tested on: crabgrass (Digitaria sanguinalis); assay: Test B preemergence
Outline: as §1

[18] = tested on: giant foxtail (Setaria faberii); assay: Test B preemergence
Outline: as §1

[19] = tested on: lambsquarters (Chenopodium album); assay: Test B preemergence
Outline: as §1

[20] = tested on: morning glory (Ipomoea hederacea); assay: Test B preemergence
Outline: as §1

[21] = tested on: pigweed (Amaranthus retroflexus); assay: Test B preemergence
Outline: as §1

rice (Oryza saliva) [22] = assay: Test B preemergence
Outline: as §1

[23] = tested on: velvetleaf (Abutilon theophrasti); assay: Test B preemergence
Outline: as §1

[24] = tested on: barnyardgrass (Echinochloa crus-galli); assay: Test C flooded paddy test; conditions: for Barnyardgrass plant response rating: Flooded Paddy, scale 0 to 100, 0 no effect, 100 complete control; for Plant response rating, Barnyardgrass: flooded paddy test, scale 0 to 100 (0 no effect, 100 complete control)
Outline: (§2)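 Plants were grown to the 2-leaf stage under flooded paddy conditions and treated. They were then kept in a greenhouse for 12 to 14 days and visually rated against untreated controls on a 0–100 scale, where 0 is no effect and 100 is complete control.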

[25] = tested on: duck salad (Heteranthera limosa); assay: Test C flooded paddy test; conditions: for Ducksalad plant response rating: Flooded Paddy, scale 0 to 100, 0 no effect, 100 complete control; for Plant response rating, Ducksalad: flooded paddy test, scale 0 to 100 (0 no effect, 100 complete control)
Outline: as §2

rice (Oryza saliva) [26] = assay: Test C flooded paddy test; conditions: for Rice plant response rating: Flooded Paddy, scale 0 to 100, 0 no effect, 100 complete control; for Plant response rating, Rice: flooded paddy test, scale 0 to 100 (0 no effect, 100 complete control)
Outline: as §2

[27] = tested on: smallflower flatsedge (Cyperus difformis); assay: Test C flooded paddy test; conditions: for Flatsedge plant response rating: Flooded Paddy, scale 0 to 100, 0 no effect, 100 complete control; for Plant response rating, Flatsedge: flooded paddy test, scale 0 to 100 (0 no effect, 100 complete control)
Outline: as §2

[28] = Rate 125 g/ha, scale 0 to 100, 0 no effect, 100 complete control
[29] = Rate 500 g/ha, scale 0 to 100, 0 is no effect, 100 is complete control, 13 to 15 days
[30] = Preemergence, Rate 500 g/ha, scale 0 to 100, 0 no effect, 100 complete control
[31] = preemergence, Rate 125 g/ha, scale of 0 to 100 where 0 is no effect and 100 is complete control, 13 to 15 days

Cc1cccc(N2CCC(n3ccc(C(C)(C)C)n3)C2=O)c1 (centres unmarked) [Compound 112]
100: Plant response rating, Surinam grass [1, 29] | Plant response rating, Barnyardgrass [14, 30] | Plant response rating, Crabgrass [17, 30] | Plant response rating, Crabgrass [17, 31] | Plant response rating, Foxtail, Giant [18, 30] | Plant response rating, Foxtail, Giant [18, 31] | Plant response rating, Lambsquarters [19, 30] | Plant response rating, Lambsquarters [19, 31] | Plant response rating, Pigweed [21, 30] | Plant response rating, Pigweed [21, 31] | Plant response rating, Rice (rice (Oryza saliva) [22]; [30]) | Flatsedge plant response rating ([27]; Rate 250 g/ha) | Flatsedge plant response rating ([27]; Rate 500 g/ha)
10: Plant response rating, Surinam grass [13, 31]
30: Plant response rating, Crabgrass [6, 28] | Plant response rating, Crabgrass [6, 29] | Plant response rating, Lambsquarters [8, 28] | Plant response rating, Lambsquarters [8, 29] | Plant response rating, Wild Oat (wild oat (Avena fatua); [28]) | Plant response rating, Surinam grass [13, 30] | Plant response rating, Corn (corn (Zea mays) [16]; [30]) | Plant response rating, Morningglory [20, 30] | Plant response rating, Morningglory [20, 31] | Ducksalad plant response rating ([25]; Rate 500 g/ha)
40: Plant response rating, Wheat [12, 28] | Plant response rating, Wheat [12, 29]
20: Plant response rating, Barnyardgrass [2, 29] | Plant response rating, Morningglory [9, 28] | Barnyardgrass plant response rating ([24]; Rate 250 g/ha) | Ducksalad plant response rating ([25]; Rate 250 g/ha) | Rice plant response rating (rice (Oryza saliva) [26]; Rate 250 g/ha) | Plant response rating, Flatsedge ([27]; Rate 62 g/ha)
90: Plant response rating, Barnyardgrass [14, 31]
0: Plant response rating, Surinam grass [1, 28] | Plant response rating, Barnyardgrass [2, 28] | Plant response rating, Blackgrass [3, 28] | Plant response rating, Blackgrass [3, 29] | Plant response rating, Cocklebur [4, 28] | Plant response rating, Cocklebur [4, 29] | Plant response rating, Corn (corn (Zea mays) [5]; [28]) | Plant response rating, Corn (corn (Zea mays) [5]; [29]) | Plant response rating, Foxtail, Giant [7, 28] | Plant response rating, Foxtail, Giant [7, 29] | Plant response rating, Velvetleaf [11, 28] | Plant response rating, Velvetleaf [11, 29] | Plant response rating, Cocklebur [15, 30] | Plant response rating, Cocklebur [15, 31] | Plant response rating, Corn (corn (Zea mays) [16]; [31]) | Plant response rating, Rice (rice (Oryza saliva) [22]; [31]) | Plant response rating, Velvetleaf [23, 30] | Plant response rating, Velvetleaf [23, 31] | Plant response rating, Barnyardgrass ([24]; Rate 62 g/ha) | Plant response rating, Barnyardgrass ([24]; Rate 125 g/ha) | Plant response rating, Ducksalad ([25]; Rate 62 g/ha) | Plant response rating, Ducksalad ([25]; Rate 125 g/ha) | Plant response rating, Rice (rice (Oryza saliva) [26]; Rate 62 g/ha) | Plant response rating, Rice (rice (Oryza saliva) [26]; Rate 125 g/ha)
80: Plant response rating, Pigweed [10, 29]
70: Rice plant response rating (rice (Oryza saliva) [26]; Rate 500 g/ha)
60: Plant response rating, Pigweed [10, 28] | Plant response rating, Wild Oat (wild oat (Avena fatua); [29]) | Barnyardgrass plant response rating ([24]; Rate 500 g/ha)
50: Plant response rating, Morningglory [9, 29] | Plant response rating, Flatsedge ([27]; Rate 125 g/ha)

CCCCC(CCCC)c1ccn(C2OCN(c3cccc(OC(F)(F)F)c3)C2=O)n1 (centres unmarked) [Compound 113]
100: Plant response rating, Lambsquarters [8, 29] | Plant response rating, Pigweed [10, 28] | Plant response rating, Pigweed [10, 29]
40: Plant response rating, Crabgrass [6, 28] | Plant response rating, Crabgrass [6, 29] | Plant response rating, Wild Oat (wild oat (Avena fatua); [28]) | Plant response rating, Wild Oat (wild oat (Avena fatua); [29])
30: Plant response rating, Lambsquarters [8, 28] | Plant response rating, Morningglory [9, 29] | Plant response rating, Wheat [12, 28] | Plant response rating, Wheat [12, 29]
70: Plant response rating, Cocklebur [4, 29]
0: Plant response rating, Surinam grass [1, 28] | Plant response rating, Surinam grass [1, 29] | Plant response rating, Barnyardgrass [2, 28] | Plant response rating, Barnyardgrass [2, 29] | Plant response rating, Blackgrass [3, 28] | Plant response rating, Blackgrass [3, 29] | Plant response rating, Cocklebur [4, 28] | Plant response rating, Corn (corn (Zea mays) [5]; [28]) | Plant response rating, Corn (corn (Zea mays) [5]; [29]) | Plant response rating, Foxtail, Giant [7, 28] | Plant response rating, Morningglory [9, 28] | Plant response rating, Velvetleaf [11, 28] | Plant response rating, Velvetleaf [11, 29] | Plant response rating, Surinam grass [13, 30] | Plant response rating, Surinam grass [13, 31] | Plant response rating, Barnyardgrass [14, 30] | Plant response rating, Barnyardgrass [14, 31] | Plant response rating, Cocklebur [15, 30] | Plant response rating, Cocklebur [15, 31] | Plant response rating, Corn (corn (Zea mays) [16]; [30]) | Plant response rating, Corn (corn (Zea mays) [16]; [31]) | Plant response rating, Crabgrass [17, 30] | Plant response rating, Crabgrass [17, 31] | Plant response rating, Foxtail, Giant [18, 30] | Plant response rating, Foxtail, Giant [18, 31] | Plant response rating, Lambsquarters [19, 30] | Plant response rating, Lambsquarters [19, 31] | Plant response rating, Morningglory [20, 30] | Plant response rating, Morningglory [20, 31] | Plant response rating, Pigweed [21, 30] | Plant response rating, Pigweed [21, 31] | Plant response rating, Rice (rice (Oryza saliva) [22]; [30]) | Plant response rating, Rice (rice (Oryza saliva) [22]; [31]) | Plant response rating, Velvetleaf [23, 30] | Plant response rating, Velvetleaf [23, 31] | Barnyardgrass plant response rating ([24]; Rate 250 g/ha) | Barnyardgrass plant response rating ([24]; Rate 500 g/ha) | Plant response rating, Barnyardgrass ([24]; Rate 62 g/ha) | Plant response rating, Barnyardgrass ([24]; Rate 125 g/ha) | Ducksalad plant response rating ([25]; Rate 250 g/ha) | Ducksalad plant response rating ([25]; Rate 500 g/ha) | Plant response rating, Ducksalad ([25]; Rate 62 g/ha) | Plant response rating, Ducksalad ([25]; Rate 125 g/ha) | Rice plant response rating (rice (Oryza saliva) [26]; Rate 250 g/ha) | Rice plant response rating (rice (Oryza saliva) [26]; Rate 500 g/ha) | Plant response rating, Rice (rice (Oryza saliva) [26]; Rate 62 g/ha) | Plant response rating, Rice (rice (Oryza saliva) [26]; Rate 125 g/ha) | Flatsedge plant response rating ([27]; Rate 250 g/ha) | Flatsedge plant response rating ([27]; Rate 500 g/ha) | Plant response rating, Flatsedge ([27]; Rate 62 g/ha) | Plant response rating, Flatsedge ([27]; Rate 125 g/ha)
20: Plant response rating, Foxtail, Giant [7, 29]
